Laboratory results taken from patent publication US20170281651A1, “CONCOMITANT ADMINISTRATION OF GLUCOCORTICOID RECEPTOR MODULATORS AND CYP3A OR STEROIDOGENESIS INHIBITORS” (Corcept Therapeutics, Inc., priority 2017, published 2017).

Assays:
Format in all cases: in vivo, human
[1] = Example 3: Phase 1 study of ketoconazole 200 mg twice daily with mifepristone 600 mg once daily with food, plasma PK incl. cross-study comparison; details: for mean increase / change in exposure on co-administration with ketoconazole: 600 mg mifepristone once daily with 200 mg ketoconazole twice daily; for effect of ketoconazole on exposure (90% CI vs standard 80:125 interval): Day 17 vs Day 12; for concentrations on Day 17 compared with Day 12: Day 17 with 200 mg ketoconazole twice daily, Day 12 mifepristone alone; for AUC0-24 Ratio % Test/Ref (cross-study, geometric mean ratio) / Cmax Ratio % Test/Ref (cross-study, geometric mean ratio): Test: Present Study Day 17 600 mg mifepristone OD + 200 mg Ketoconazole BID, Reference: Historic Study Day 7 1200 mg mifepristone OD alone, after 34% fat meal
[2] = Example 2: effect of a 400 mg single dose of ketoconazole on PK of an 8-day regimen of 300 mg or 600 mg OD mifepristone, moderate fat breakfast
Method: This was an open-label study in healthy male subjects. […] The 400 mg single dose of ketoconazole was given to all subjects on day 8.
METHODOLOGY: Twelve subjects were enrolled, six in Cohort 1 and 6 in Cohort 2.
Subjects were discharged on Day 11.
Subjects were discharged on Day 11. Subjects in both cohorts returned to study center on Day 13 for safety monitoring, collection of the 120-hour PK draw, and completion of the Termination Visit procedures, followed by discharge from the study. To the extent possible, any adverse events deemed study drug-related and that were ongoing at the time of discharge from the study were followed-up to resolution or until a determination was made that the unresolved event was stable.
DIAGNOSIS AND MAIN […] FOR INCLUSION: Healthy male volunteers between the ages of 18 to 45 years of age with a body mass index (BMI) ranging between 19 and 32 kg/m2 and a weight of at least 60 kg (132 lbs) were enrolled. Subjects had no clinically significant abnormal findings on the physical examination, ECG, blood pressure, heart rate, medical history, or clinical laboratory results during screening. The QTc interval at screening was less than 450 msec.
DURATION OF TREATMENT: Up to a total of 28 days, including up to 2 weeks screening, dosing on Days 1-8, safety observation, and PK sample collection through Day 13.
Additionally, comparisons were made between the PK results of cohort 1 and 2. Pharmacokinetic parameters Cmax, T1/2 and total AUC were calculated for plasma concentrations of ketoconazole following the single dose on Day 8. Descriptive statistics (count, mean, median, standard deviation, minimum, maximum, and % coefficient of variation) were provided. Ketoconazole concentrations were listed and summarized. GM means of Cmax and total AUC were compared for the single dose in this study to the combined data of reported 400 mg single doses of ketoconazole of healthy subjects from the literature.

[3] = Example 1: safety (adverse events, laboratory tests, ECG); details: mifepristone 300 mg single dose with ketoconazole for 14 days
Method: In cohort 1, six subjects received ketoconazole 400 mg OD for 14 days.
In cohort 2, six subjects received ketoconazole 200 mg BID for 14 days. […] All 12 subjects completed the study. Cohort 2 subjects participated in a Screening visit to assess eligibility and a check-in Day (Day −1) during which eligibility was re-confirmed. […] The evening of Day 1, subjects received 200 mg oral ketoconazole. Subjects remained in the clinic on Days 2, 3 and 4 to receive 200 mg BID oral ketoconazole, and for safety evaluation and collection of blood pharmacokinetic (PK) samples. Subjects were discharged from the clinic on Day 4 following evening administration of 200 mg oral ketoconazole, and returned to the clinic the morning and evening of Days 5 through 13 to receive 200 mg BID oral ketoconazole. Morning doses of ketoconazole on Days 0-13 were administered in the fasted state.
Subjects in both cohorts returned to the study center on Day 15 for safety monitoring, and completion of the Termination Visit procedures, followed by discharge from the study. Safety was assessed by spontaneously reported adverse events, physical examinations, and routine clinical laboratory tests. To the extent possible, any adverse events deemed study drug-related and that were ongoing at the time of discharge from the study were followed-up to resolution or until a determination is made that the unresolved event was stable.

[4] = Test: Day 17 600 mg mifepristone OD + 200 mg Ketoconazole BID, Reference: Day 12 600 mg mifepristone OD
[5] = single 400 mg ketoconazole dose on Day 8
[6] = 400 mg ketoconazole (200 mg twice per day) concomitantly with 600 mg mifepristone per day, fifth day
[7] = Test: Day 17 600 mg mifepristone OD + 200 mg Ketoconazole BID, Reference: Day −1 200 mg Ketoconazole Single Dose

SMILES	mean increase / change in exposure on co-administration with ketoconazole [1]	effect of ketoconazole on exposure (90% CI vs standard 80:125 interval) [1]	concentrations on Day 17 compared with Day 12 [1]	AUC0-24 Ratio % Test/Reference (geometric mean ratio) [1, 4] [%]	Cmax Ratio % Test/Reference (geometric mean ratio) [1, 4] [%]	AUC0-24 Ratio % Test/Ref (cross-study, geometric mean ratio) [1] [%]	Cmax Ratio % Test/Ref (cross-study, geometric mean ratio) [1] [%]	mean metabolite exposure compared with mifepristone ([2]; 300 or 600 mg OD mifepristone, Days 7-13)	share of total steady-state AUC0-24 of mifepristone, RU42633, RU42698, RU42848 ([1]; in the presence of ketoconazole) [%]	share of total steady-state AUC0-24 of mifepristone, RU42633, RU42698, RU42848 ([1]; mifepristone alone) [%]	TEAEs considered by the investigator to be related to the drug [3]	AUCinf higher on 600 mg OD mifepristone regimen relative to 300 mg OD [2, 5] [%]	Cmax higher on 600 mg OD mifepristone regimen relative to 300 mg OD [2, 5] [%]	half-life on either mifepristone regimen ([2]; single 400 mg ketoconazole dose on Day 8, mifepristone 300 vs 600 mg OD)	increase in ketoconazole AUC [1, 6] [%]	increase in ketoconazole Cmax [1, 6] [%]	AUC Ratio % Test/Reference (geometric mean ratio) [1, 7] [%]	Cmax Ratio % Test/Reference (geometric mean ratio) [1, 7] [%]
CC#C[C@]1(O)CC[C@H]2[C@@H]3CCC4=CC(=O)CCC4=C3[C@@H](c3ccc(NC)cc3)C[C@@]21C [RU 42633, (8S,11R,13S,14S,17S)-17-hydroxy-13-methyl-11-[4-(methylamino)phenyl]-17-prop-1-ynyl-1,2,6,7,8,11,12,14,15,16-decahydrocyclopenta[a]phenanthren-3-one]	little change	not affected	similar	102.33	105.73	91.34	96.31	–	–	–	–	–	–	–	–	–	–	–
CN(C)c1ccc([C@H]2C[C@@]3(C)[C@@H](CC[C@@]3(O)C#CCO)[C@@H]3CCC4=CC(=O)CCC4=C32)cc1 [RU 42698, (8S,11R,13S,14S,17S)-11-[4-(dimethylamino)phenyl]-17-hydroxy-17-(3-hydroxyprop-1-ynyl)-13-methyl-1,2,6,7,8,11,12,14,15,16-decahydrocyclopenta[a]phenanthren-3-one]	approximately 70%	increased	higher	166.86	169.13	118.18	116.55	lower	13	9	–	–	–	–	–	–	–	–
CC(=O)N1CCN(c2ccc(OCC3COC(Cn4ccnc4)(c4ccc(Cl)cc4Cl)O3)cc2)CC1 (centres unmarked) [ketoconazole, 1-acetyl-4-[4-[[2-(2,4-dichlorophenyl)-2-[(1H-imidazol-1-yl)-methyl]-1,3-dioxolan-4-yl]methoxy]phenyl]piperazine]	–	–	–	–	–	–	–	–	–	–	One TEAE of insomnia	36	37	not appreciably different	253	365	365.36	252.71
CC#C[C@]1(O)CC[C@H]2[C@@H]3CCC4=CC(=O)CCC4=C3[C@@H](c3ccc(N)cc3)C[C@@]21C [RU 42848, (8S,11R,13S,14S,17S)-11-(4-aminophenyl)-17-hydroxy-13-methyl-17-prop-1-ynyl-1,2,6,7,8,11,12,14,15,16-decahydrocyclopenta[a]phenanthren-3-one]	little change	not affected	similar	94.88	95.48	81.43	82.45	–	–	–	–	–	–	–	–	–	–	–
